Numbered stars: 1 amine (or outer) side, 2 acyl side, 3 side chain; on linkers, the order of the positions; unused ones are H or OH. Bridge positions count the residues as written; N and C are the ends. Square brackets hold non-standard residues; d marks the D form. Peptide text beside a SMILES is read from it. I, II: the chains in the order shown. Phe(4-tBu) = CC(C)(C)c1ccc(C[C@H](N)C(=O)O)cc1; Diglycolyl = O=C(COCC(=O)[*:2])[*:1]; NMeR = CN[C@@H](CCCNC(=N)N)C(=O)O; β3hE = N[C@@H](CCC(=O)O)CC(=O)O; Pen = CC(C)(S)[C@H](N)C(=O)O
How the values were obtained:
Intestinal Wash Assay = type: in vitro ADME; design: dose or concentration left out as unconfirmed; conditions: rat, rat intestinal wash fluid (small intestine); Table 4-C, t1/2
Description: Intestinal wash assay solution was prepared from rats fasted for at least 6 hours prior. The animals were euthanized and a midline incision was made from the point of the jaw to the pubis. The abdomen and chest were opened by making 2 incisions through the anterior chest wall on either side. Hemostats were used to clamp off both ends of the animal's stomach—where the esophagus meets the stomach and where the stomach meets the duodenum. A hemostat was also used to clamp 2-3 cm down the intestine from where the stomach meets the duodenum.
Intestinal wash assay solution was prepared by separating 20 cm of the small intestine from the body. Once separated 20 cm, the end was clamped with a hemostat and the section cut from the body, leaving the hemostats in place on the removed section. 1 mL of chilled saline was drawn up with a 1 mL syringe. One end of the intestine was held up and the clamp removed. Approximately 2-2.5 cm of the gavage needle was inserted into the intestine, and the saline was slowly injected. The fluid was massaged down the length of the intestine using gloved fingers. The gavage needle was removed and the clamp was replaced on the end of the intestine. The intestine was sat straight and a q-tip was run firmly up and down the length of the outside of the intestine approximately 3-6 times to mix the enzymes with the saline. One end of the intestine was held up and some of the fluid was carefully moved at the top down. The clamp was removed and that end of the intestine was set into a small weigh boat on ice. The other end of the intestine was carefully picked up and held vertically. Gloved fingers were gently run down it to squeeze the fluid into the container. The previous steps saline injection and fluid procurement steps were repeated twice using only 0.5 mL of chilled saline. The sample was pipetted from the weigh boat into a centrifuge tube and placed on ice. All intestinal wash samples were spun down in a cold centrifuge at 12,000×g for 10 minutes. The supernatant from the top of each centrifuged sample was pipetted into cryotubes, and kept on ice until use.
Intestinal wash assays were performed using intestinal wash assay solution prepared as described above. A sufficient amount of rat intestinal wash was thawed. For each sample, 200 uL of rat intestinal wash fluid was pipetted into 1.5 mL Eppendorf tubes (number of tubes for experiment=number of test peptides×N). The tubes were pre-incubated for about 10 minutes in a water bath at 37° C.
Peptide working solutions ([…]) were prepared by combining 2 μl of 10 mM DMSO stock with 128 μl 100 mM Tris pH 7.5.
Peptide quench solvent (50% ACN-50% MeOH-5% Formic Acid)+IS (5 ug/ml; 1 ul of 10 mg/mL IS per 2 mL quench solvent) was prepare and a quench plate prepared and placed on ice. 200 ul of quench solution was added to each well of the quench plate for T=0, 10, 20, 30, 60 and 180 min collection.
For each test sample and a positive control, 30 ul of peptide working solution was added to a tube of intestinal wash fluid. The tube was gently vortexed and 30 ul was immediately removed and quenched in T=0 well of quench plate (pipetted directly into the quench solution). This well was covered tightly to prevent evaporation. 30 ul aliquots were removed at T=10 min, T=20 min, T=30 min, T=60 min, and T=180 min, and quenched. When all time points were collected, the quench plate was centrifuged at 10,000 rpm for 10 minutes. 150 uL of each supernatant was transferred to a polypropylene 96-well collection plate. 300 ul Mobile Phase A was added to each collection, and LC/MS/MS analysis was performed to determine the amount or concentration of peptide remaining in each test sample and positive control.

[1] = Cysteine/Cystine Redox Stability Assay; type: physicochemical; conditions: Table 4-C; ORP where half of the oxidized peptide remains
Description: Peptides were diluted to 90 μM by adding 4.545 μl of a 10 mM peptide DMSO stock to 495.45 μl of 100 mM Tris-Cl, pH 7.5. Aliquots of […] were transferred to 8 wells down a column of a 96 well plate. 20 μl of 2.5 mM Cystine in 100 mM Tris-Cl, pH 7.5 was added to each well. Cysteine stock solutions in 100 mM Tris-Cl, pH 7.5 were prepared fresh at the following concentrations: 400 mM, 200 mM, 80 mM, 44 mM, 22 mM, 11 mM, 5.5 mM and blank. At time 0, 25 μl of each cysteine stock solution was added to the 55 μl of cystine/peptide solution, and the mixture was incubated at room temperature for 40 min. The samples were quenched by adding 20 μl of 5M acetic acid and analyzed by reverse phase HPLC. The fraction of oxidized peptide was calculated and plotted against the calculated oxidation reduction potential (ORP) as defined by the Nernst equation. The ORP where half of the oxidized peptide remains is shown below.

[2] = tested on: BALB/c mice, chronic DSS colitis; assay: 15 day chronic DSS colitis mouse model; type: in vivo; conditions: 10 mg/kg PO BID plus 0.2 mg/ml in drinking water
Description: To further evaluate the efficacy of peptides of the present invention in treating colitis, a chronic DSS colitis mouse model was used to examine the effects of orally administered Peptide X or another peptide, Peptide XX, as compared to vehicle control or the antibodies, MECA 367 and DATK32. Peptide XX is a dimer having the following structure, where DIG links the two peptide monomers by their C-termini:
In this 15 day chronic DSS colitis study, BALB/c mice were treated continuously with 2.5% DSS. Peptide X dosing was 55 mg/kg/day, 17 mg/kg/day or 6 mg/kg/day in drinking water. Peptide XX dosing was 10 mg/kg PO BID plus 0.2 mg/ml in drinking water. The anti-α4β7 Ab DATK32 was dosed 25 mg/kg IP every 3 days, and the anti-MAdCAM Ab MECA 367 was dosed 8 mg/kg IP daily. After takedown, distal colon sections were fixed for histopathology and processed for β7+ cell IH staining using the anti-β7 antibody M293.

| SMILES | half-life (Intestinal Wash Assay) [h] | Cys/CySS (mV) [1] [mV] | colon macroscopic and histopathology scores [2] | infiltration of B7+ cells into the lamina propria of the distal colon [2] |
| --- | --- | --- | --- | --- |
| CC(=O)N[C@@H]1C(=O)N[C@@H](CCCNC(=N)N)C(=O)N[C@@H](CO)C(=O)N[C@@H](CC(=O)O)C(=O)N[C@@H]([C@@H](C)O)C(=O)N[C@@H](CC(C)C)C(=O)N[C@H](C(=O)N[C@H](CCCCNC(=O)COCC(=O)NCCCC[C@@H](NC(=O)[C@@H]2CSSC(C)(C)[C@H](NC(C)=O)C(=O)N[C@@H](CCCNC(=N)N)C(=O)N[C@@H](CO)C(=O)N[C@@H](CC(=O)O)C(=O)N[C@@H]([C@@H](C)O)C(=O)N[C@@H](CC(C)C)C(=O)N2)C(N)=O)C(N)=O)CSSC1(C)C [compound 207, (Ac-Pen-R-S-D-T-L-C-k-NH2)2-DIG] (I: Ac-[Pen]RSDTLC[dK]-NH2 / II: Ac-[Pen]RSDTLC[dK]-NH2; disulfide I:1-I:7, II:1-II:7 (inferred); linker I:8-II:8 via Diglycolyl (inferred)) | < 0.167 | −173 | – | – |
| CC(=O)N[C@@H]1C(=O)N(C)[C@@H](CCCNC(=N)N)C(=O)N[C@@H](CO)C(=O)N[C@@H](CC(=O)O)C(=O)N[C@@H]([C@@H](C)O)C(=O)N[C@@H](CC(C)C)C(=O)N[C@H](C(=O)N[C@@H](Cc2ccc(C(C)(C)C)cc2)C(=O)N[C@@H](CCC(=O)O)CC(=O)N[C@H](CCCCNC(=O)COCC(=O)NCCCC[C@@H](NC(=O)C[C@H](CCC(=O)O)NC(=O)[C@H](Cc2ccc(C(C)(C)C)cc2)NC(=O)[C@H]2NC(=O)[C@H](CC(C)C)NC(=O)[C@H]([C@@H](C)O)NC(=O)[C@H](CC(=O)O)NC(=O)[C@H](CO)NC(=O)[C@H](CCCNC(=N)N)N(C)C(=O)[C@@H](NC(C)=O)C(C)(C)SSC2(C)C)C(N)=O)C(N)=O)C(C)(C)SSC1(C)C [compound 218, [Ac-Pen-(N-Me-Arg)-Ser-Asp-Thr-Leu-Pen-Phe(4-tBu)-(β-homoGlu)-(D-Lys)-NH2]2-DIG] (I: Ac-[Pen][NMeR]SDTL[Pen][Phe(4-tBu)][β3hE][dK]-NH2 / II: Ac-[Pen][NMeR]SDTL[Pen][Phe(4-tBu)][β3hE][dK]-NH2; disulfide I:1-I:7, II:1-II:7; linker I:10-II:10 via Diglycolyl) | > 6 | <−300 | – | – |
| CC(=O)N[C@H]1CSSC(C)(C)[C@@H](C(=O)N[C@@H](Cc2c[nH]c3ccccc23)C(=O)N[C@H](CCCCNC(=O)COCC(=O)NCCCC[C@@H](NC(=O)[C@H](Cc2c[nH]c3ccccc23)NC(=O)[C@H]2NC(=O)[C@H](CC(C)C)NC(=O)[C@H]([C@@H](C)O)NC(=O)[C@H](CC(=O)O)NC(=O)[C@H](CO)NC(=O)[C@H](CCCNC(=N)N)N(C)C(=O)[C@@H](NC(C)=O)CSSC2(C)C)C(N)=O)C(N)=O)NC(=O)[C@H](CC(C)C)NC(=O)[C@H]([C@@H](C)O)NC(=O)[C@H](CC(=O)O)NC(=O)[C@H](CO)NC(=O)[C@H](CCCNC(=N)N)N(C)C1=O [compound 204, (Ac-C-N-Me-R-S-D-T-L-Pen-W-k-NH2)2-DIG] (I: Ac-C[NMeR]SDTL[Pen]W[dK]-NH2 / II: Ac-C[NMeR]SDTL[Pen]W[dK]-NH2; disulfide I:1-I:7, II:1-II:7 (inferred); linker I:9-II:9 via Diglycolyl (inferred)) | > 3 | −204 | – | – |
| CC(=O)N[C@@H]1C(=O)N(C)[C@@H](CCCNC(=N)N)C(=O)N[C@@H](CO)C(=O)N[C@@H](CC(=O)O)C(=O)N[C@@H]([C@@H](C)O)C(=O)N[C@@H](CC(C)C)C(=O)N[C@H](C(=O)N[C@@H](Cc2c[nH]c3ccccc23)C(=O)N[C@H](CCCCNC(=O)COCC(=O)NCCCC[C@@H](NC(=O)[C@H](Cc2c[nH]c3ccccc23)NC(=O)[C@H]2NC(=O)[C@H](CC(C)C)NC(=O)[C@H]([C@@H](C)O)NC(=O)[C@H](CC(=O)O)NC(=O)[C@H](CO)NC(=O)[C@H](CCCNC(=N)N)N(C)C(=O)[C@@H](NC(C)=O)C(C)(C)SSC2(C)C)C(N)=O)C(N)=O)C(C)(C)SSC1(C)C [compound 209, (Ac-Pen-N-Me-R-S-D-T-L-Pen-W-k-NH2)2-DIG] (I: Ac-[Pen][NMeR]SDTL[Pen]W[dK]-NH2 / II: Ac-[Pen][NMeR]SDTL[Pen]W[dK]-NH2; disulfide I:1-I:7, II:1-II:7 (inferred); linker I:9-II:9 via Diglycolyl (inferred)) | > 3 | <−300 | – | – |
| CC(=O)N[C@@H]1C(=O)N(C)[C@@H](CCCNC(=N)N)C(=O)N[C@@H](CO)C(=O)N[C@@H](CC(=O)O)C(=O)N[C@@H]([C@@H](C)O)C(=O)N[C@@H](CC(C)C)C(=O)N[C@H](C(=O)N[C@@H](Cc2c[nH]c3ccccc23)C(=O)N[C@@H](CCC(=O)O)CC(=O)N[C@H](CCCCNC(=O)COCC(=O)NCCCC[C@@H](NC(=O)C[C@H](CCC(=O)O)NC(=O)[C@H](Cc2c[nH]c3ccccc23)NC(=O)[C@H]2NC(=O)[C@H](CC(C)C)NC(=O)[C@H]([C@@H](C)O)NC(=O)[C@H](CC(=O)O)NC(=O)[C@H](CO)NC(=O)[C@H](CCCNC(=N)N)N(C)C(=O)[C@@H](NC(C)=O)C(C)(C)SSC2(C)C)C(N)=O)C(N)=O)C(C)(C)SSC1(C)C [compound 213, [Ac-Pen-(N-Me-Arg)-Ser-Asp-Thr-Leu-Pen-Trp-(β-homoGlu)-(D-Lys)-NH2]2-DIG] (I: Ac-[Pen][NMeR]SDTL[Pen]W[β3hE][dK]-NH2 / II: Ac-[Pen][NMeR]SDTL[Pen]W[β3hE][dK]-NH2; disulfide I:1-I:7, II:1-II:7; linker I:10-II:10 via Diglycolyl) | – | – | reduced colon macroscopic and histopathology scores comparable to the antibodies | reduced infiltration |
| CC(=O)N[C@@H]1C(=O)N(C)[C@@H](CCCNC(=N)N)C(=O)N[C@@H](CO)C(=O)N[C@@H](CC(=O)O)C(=O)N[C@@H]([C@@H](C)O)C(=O)N[C@@H](CC(C)C)C(=O)N[C@H](C(=O)N[C@@H](Cc2c[nH]c3ccccc23)C(=O)N[C@@H](CCC(=O)O)C(=O)N[C@H](CCCCNC(=O)COCC(=O)NCCCC[C@@H](NC(=O)[C@H](CCC(=O)O)NC(=O)[C@H](Cc2c[nH]c3ccccc23)NC(=O)[C@H]2NC(=O)[C@H](CC(C)C)NC(=O)[C@H]([C@@H](C)O)NC(=O)[C@H](CC(=O)O)NC(=O)[C@H](CO)NC(=O)[C@H](CCCNC(=N)N)N(C)C(=O)[C@@H](NC(C)=O)C(C)(C)SSC2(C)C)C(N)=O)C(N)=O)C(C)(C)SSC1(C)C [compound 217, (Ac-Pen-N-Me-R-S-D-T-L-Pen-W-E-k-NH2)2-DIG] (I: Ac-[Pen][NMeR]SDTL[Pen]WE[dK]-NH2 / II: Ac-[Pen][NMeR]SDTL[Pen]WE[dK]-NH2; disulfide I:1-I:7, II:1-II:7 (inferred); linker I:10-II:10 via Diglycolyl (inferred)) | > 3 | <−300 | – | – |

Reference: patent publication US9809623B2, “α4β7 peptide monomer and dimer antagonists” (Protagonist Therapeutics, Inc., priority 2014, dated 2017)
